{"source": "paper PMC8909834", "about": "“An Orally Bioavailable and Highly Efficacious Inhibitor of CDK9/FLT3 for the Treatment of Acute Myeloid Leukemia” (Cancers, 2022)", "assay_in_all_cases": "Kinase Hotspot radiolabel assay", "assay_type_in_all_cases": "biochemical", "settings_in_all_cases": "read-out: % Residual Activity", "key": {"ABL2/ARG": {"target": "T1, ABL2/ARG (Homo sapiens, UniProt P42684)", "T1 construct": "purchased Reaction Biology Corporation (Kinase HotSpot)", "T1 sequence (P42684 whole entry)": "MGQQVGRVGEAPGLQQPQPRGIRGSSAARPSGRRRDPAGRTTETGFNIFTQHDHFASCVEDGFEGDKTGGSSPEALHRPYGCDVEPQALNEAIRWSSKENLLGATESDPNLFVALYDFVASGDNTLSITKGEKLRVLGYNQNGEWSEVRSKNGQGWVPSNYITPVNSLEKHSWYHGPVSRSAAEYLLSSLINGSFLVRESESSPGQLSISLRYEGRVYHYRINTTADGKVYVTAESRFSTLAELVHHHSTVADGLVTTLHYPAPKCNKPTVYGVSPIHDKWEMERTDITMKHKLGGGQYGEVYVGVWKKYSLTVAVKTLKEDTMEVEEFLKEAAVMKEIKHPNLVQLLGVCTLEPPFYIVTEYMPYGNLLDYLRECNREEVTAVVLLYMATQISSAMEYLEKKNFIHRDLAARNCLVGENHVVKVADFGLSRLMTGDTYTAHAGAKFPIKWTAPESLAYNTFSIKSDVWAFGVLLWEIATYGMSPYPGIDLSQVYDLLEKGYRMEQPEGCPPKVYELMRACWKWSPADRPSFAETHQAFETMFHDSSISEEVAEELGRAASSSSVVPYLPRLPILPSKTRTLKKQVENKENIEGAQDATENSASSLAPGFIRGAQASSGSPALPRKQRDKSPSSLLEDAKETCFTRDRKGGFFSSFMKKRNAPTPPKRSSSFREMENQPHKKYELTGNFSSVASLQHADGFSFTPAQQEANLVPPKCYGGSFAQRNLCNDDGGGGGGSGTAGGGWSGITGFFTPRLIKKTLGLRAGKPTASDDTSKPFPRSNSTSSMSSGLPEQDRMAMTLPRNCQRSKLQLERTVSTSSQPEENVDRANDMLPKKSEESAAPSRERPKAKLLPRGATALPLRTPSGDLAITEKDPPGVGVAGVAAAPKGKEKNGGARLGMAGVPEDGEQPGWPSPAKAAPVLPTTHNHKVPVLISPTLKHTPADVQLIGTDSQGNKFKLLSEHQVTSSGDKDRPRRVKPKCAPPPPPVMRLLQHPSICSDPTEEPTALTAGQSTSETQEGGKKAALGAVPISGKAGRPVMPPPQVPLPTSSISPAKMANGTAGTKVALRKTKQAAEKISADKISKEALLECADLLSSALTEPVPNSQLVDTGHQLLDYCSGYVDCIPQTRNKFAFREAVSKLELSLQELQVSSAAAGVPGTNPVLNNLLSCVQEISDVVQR", "procedure,_shortened": "(§1)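 Data come from a 369-member kinase selectivity screen run as a Hotspot radiolabel assay. Compound concentration was 1 µM, and Ki was determined wherever inhibition topped 90%.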"}, "CDK4/cyclin D3": {"target": "T2, CDK4/cyclin D3 (Homo sapiens, UniProt P11802)", "T2 construct": "purchased Reaction Biology Corporation (Kinase HotSpot)", "procedure,_shortened": "as §1"}, "CDK5/p25": {"target": "T3, CDK5/p25 (Homo sapiens, UniProt Q00535)", "T3 construct": "purchased Reaction Biology Corporation (Kinase HotSpot)", "procedure,_shortened": "as §1"}, "CDK9/cyclin T1": {"target": "T4, CDK9/cyclin T1 (Homo sapiens, UniProt P50750)", "T4 construct": "purchased Reaction Biology Corporation (Kinase HotSpot)", "procedure,_shortened": "as §1"}, "CK1g3": {"target": "T5, CK1g3 (Homo sapiens, UniProt Q9Y6M4)", "T5 construct": "purchased Reaction Biology Corporation (Kinase HotSpot)", "procedure,_shortened": "as §1"}, "CLK1": {"target": "T6, CLK1 (Homo sapiens, UniProt P49759)", "T6 construct": "purchased Reaction Biology Corporation (Kinase HotSpot)", "procedure,_shortened": "as §1"}, "COT1/MAP3K8": {"target": "T7, COT1/MAP3K8 (Homo sapiens, UniProt P41279)", "T7 construct": "purchased Reaction Biology Corporation (Kinase HotSpot)", "procedure,_shortened": "as §1"}, "DMPK2": {"target": "T8, DMPK2 (Homo sapiens, UniProt Q6DT37)", "T8 construct": "purchased Reaction Biology Corporation (Kinase HotSpot)", "T8 sequence (Q6DT37 whole entry)": "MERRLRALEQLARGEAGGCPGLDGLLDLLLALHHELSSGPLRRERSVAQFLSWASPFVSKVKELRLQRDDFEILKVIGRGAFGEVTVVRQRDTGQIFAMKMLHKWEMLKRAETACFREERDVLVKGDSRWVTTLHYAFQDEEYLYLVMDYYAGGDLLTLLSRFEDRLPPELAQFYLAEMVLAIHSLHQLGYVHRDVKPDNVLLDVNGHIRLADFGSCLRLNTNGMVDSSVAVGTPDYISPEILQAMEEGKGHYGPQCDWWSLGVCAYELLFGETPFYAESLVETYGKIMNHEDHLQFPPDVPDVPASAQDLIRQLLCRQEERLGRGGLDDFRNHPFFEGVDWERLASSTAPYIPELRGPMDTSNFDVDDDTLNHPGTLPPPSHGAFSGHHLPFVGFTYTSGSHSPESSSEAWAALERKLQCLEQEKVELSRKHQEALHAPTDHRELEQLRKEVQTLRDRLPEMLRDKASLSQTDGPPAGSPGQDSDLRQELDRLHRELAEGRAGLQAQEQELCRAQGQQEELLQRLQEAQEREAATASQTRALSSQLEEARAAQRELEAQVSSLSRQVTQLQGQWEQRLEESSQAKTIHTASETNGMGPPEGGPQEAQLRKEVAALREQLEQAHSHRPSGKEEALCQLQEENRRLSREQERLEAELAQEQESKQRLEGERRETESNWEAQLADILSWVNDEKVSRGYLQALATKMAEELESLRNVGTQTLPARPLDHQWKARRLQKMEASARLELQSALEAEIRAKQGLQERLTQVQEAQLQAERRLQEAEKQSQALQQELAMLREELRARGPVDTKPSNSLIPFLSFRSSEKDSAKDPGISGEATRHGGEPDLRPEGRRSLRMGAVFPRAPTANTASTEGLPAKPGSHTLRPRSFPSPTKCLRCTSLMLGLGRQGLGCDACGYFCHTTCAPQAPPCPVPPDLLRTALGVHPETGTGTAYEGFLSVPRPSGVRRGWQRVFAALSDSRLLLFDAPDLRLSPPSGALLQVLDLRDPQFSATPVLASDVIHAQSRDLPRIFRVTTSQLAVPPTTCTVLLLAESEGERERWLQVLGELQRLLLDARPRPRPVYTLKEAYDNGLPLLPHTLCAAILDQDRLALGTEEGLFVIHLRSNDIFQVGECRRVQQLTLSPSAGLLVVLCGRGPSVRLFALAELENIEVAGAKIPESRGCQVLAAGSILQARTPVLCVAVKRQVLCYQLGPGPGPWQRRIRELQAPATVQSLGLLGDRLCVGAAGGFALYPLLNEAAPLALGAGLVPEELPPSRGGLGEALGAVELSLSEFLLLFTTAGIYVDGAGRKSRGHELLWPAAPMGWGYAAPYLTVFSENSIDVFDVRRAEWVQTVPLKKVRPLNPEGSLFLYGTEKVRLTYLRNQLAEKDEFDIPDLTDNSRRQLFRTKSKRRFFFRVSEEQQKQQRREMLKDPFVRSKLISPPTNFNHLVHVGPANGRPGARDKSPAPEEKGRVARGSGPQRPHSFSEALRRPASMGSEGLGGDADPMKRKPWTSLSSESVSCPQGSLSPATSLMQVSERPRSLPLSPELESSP", "procedure,_shortened": "as §1"}, "ERK2/MAPK1": {"target": "T9, ERK2/MAPK1 (Homo sapiens, UniProt P28482)", "T9 construct": "purchased Reaction Biology Corporation (Kinase HotSpot)", "procedure,_shortened": "as §1"}, "FYN": {"target": "T10, FYN (Homo sapiens, UniProt P06241)", "T10 construct": "purchased Reaction Biology Corporation (Kinase HotSpot)", "procedure,_shortened": "as §1"}, "GSK3b": {"target": "T11, GSK3b (Homo sapiens, UniProt P49841)", "T11 construct": "purchased Reaction Biology Corporation (Kinase HotSpot)", "procedure,_shortened": "as §1"}, "HCK": {"target": "T12, HCK (Homo sapiens, UniProt P08631)", "T12 construct": "purchased Reaction Biology Corporation (Kinase HotSpot)", "procedure,_shortened": "as §1"}, "IRAK1": {"target": "T13, IRAK1 (Homo sapiens, UniProt P51617)", "T13 construct": "purchased Reaction Biology Corporation (Kinase HotSpot)", "procedure,_shortened": "as §1"}, "LYN B": {"target": "T14, LYN B (Homo sapiens, UniProt P07948)", "T14 construct": "purchased Reaction Biology Corporation (Kinase HotSpot)", "procedure,_shortened": "as §1"}, "MAPKAPK5/PRAK": {"target": "T15, MAPKAPK5/PRAK (Homo sapiens, UniProt Q8IW41)", "T15 construct": "purchased Reaction Biology Corporation (Kinase HotSpot)", "procedure,_shortened": "as §1"}, "MARK2/PAR-1Ba": {"target": "T16, MARK2/PAR-1Ba (Homo sapiens, UniProt Q7KZI7)", "T16 construct": "purchased Reaction Biology Corporation (Kinase HotSpot)", "T16 sequence (Q7KZI7 whole entry)": "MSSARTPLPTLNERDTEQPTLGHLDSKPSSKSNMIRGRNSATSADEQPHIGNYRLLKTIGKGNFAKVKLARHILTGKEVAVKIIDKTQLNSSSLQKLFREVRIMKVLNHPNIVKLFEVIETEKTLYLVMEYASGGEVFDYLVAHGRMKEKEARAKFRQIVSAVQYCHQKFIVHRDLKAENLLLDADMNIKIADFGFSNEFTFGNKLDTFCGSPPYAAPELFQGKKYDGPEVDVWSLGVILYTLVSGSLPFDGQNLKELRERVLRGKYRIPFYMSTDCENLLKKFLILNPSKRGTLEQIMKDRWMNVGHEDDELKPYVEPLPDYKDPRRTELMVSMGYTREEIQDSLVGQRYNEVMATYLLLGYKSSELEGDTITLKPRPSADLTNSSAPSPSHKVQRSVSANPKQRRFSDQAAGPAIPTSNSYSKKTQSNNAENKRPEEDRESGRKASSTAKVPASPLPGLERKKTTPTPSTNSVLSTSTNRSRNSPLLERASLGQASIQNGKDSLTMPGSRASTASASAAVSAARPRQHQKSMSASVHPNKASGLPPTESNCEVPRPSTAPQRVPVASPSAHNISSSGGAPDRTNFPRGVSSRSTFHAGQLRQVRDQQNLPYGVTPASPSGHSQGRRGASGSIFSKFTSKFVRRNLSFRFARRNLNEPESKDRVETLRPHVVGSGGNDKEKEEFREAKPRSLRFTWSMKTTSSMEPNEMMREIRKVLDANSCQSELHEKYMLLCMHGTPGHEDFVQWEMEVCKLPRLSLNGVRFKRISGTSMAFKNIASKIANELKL", "procedure,_shortened": "as §1"}, "MKK7": {"target": "T17, MKK7 (Homo sapiens, UniProt O14733)", "T17 construct": "purchased Reaction Biology Corporation (Kinase HotSpot)", "procedure,_shortened": "as §1"}, "MLK2/MAP3K10": {"target": "T18, MLK2/MAP3K10 (Homo sapiens, UniProt Q02779)", "T18 construct": "purchased Reaction Biology Corporation (Kinase HotSpot)", "procedure,_shortened": "as §1"}, "MST2/STK3": {"target": "T19, MST2/STK3 (Homo sapiens, UniProt Q13188)", "T19 construct": "purchased Reaction Biology Corporation (Kinase HotSpot)", "procedure,_shortened": "as §1"}, "MYO3A": {"target": "T20, MYO3A (Homo sapiens, UniProt Q8NEV4)", "T20 construct": "purchased Reaction Biology Corporation (Kinase HotSpot)", "procedure,_shortened": "as §1"}, "NEK5": {"target": "T21, NEK5 (Homo sapiens, UniProt Q6P3R8)", "T21 construct": "purchased Reaction Biology Corporation (Kinase HotSpot)", "procedure,_shortened": "as §1"}, "PAK6": {"target": "T22, PAK6 (Homo sapiens, UniProt Q9NQU5)", "T22 construct": "purchased Reaction Biology Corporation (Kinase HotSpot)", "procedure,_shortened": "as §1"}, "PKN1/PRK1": {"target": "T23, PKN1/PRK1 (Homo sapiens, UniProt Q16512)", "T23 construct": "purchased Reaction Biology Corporation (Kinase HotSpot)", "procedure,_shortened": "as §1"}, "RAF1": {"target": "T24, RAF1 (Homo sapiens, UniProt P04049)", "T24 construct": "purchased Reaction Biology Corporation (Kinase HotSpot)", "T24 sequence (P04049 whole entry)": "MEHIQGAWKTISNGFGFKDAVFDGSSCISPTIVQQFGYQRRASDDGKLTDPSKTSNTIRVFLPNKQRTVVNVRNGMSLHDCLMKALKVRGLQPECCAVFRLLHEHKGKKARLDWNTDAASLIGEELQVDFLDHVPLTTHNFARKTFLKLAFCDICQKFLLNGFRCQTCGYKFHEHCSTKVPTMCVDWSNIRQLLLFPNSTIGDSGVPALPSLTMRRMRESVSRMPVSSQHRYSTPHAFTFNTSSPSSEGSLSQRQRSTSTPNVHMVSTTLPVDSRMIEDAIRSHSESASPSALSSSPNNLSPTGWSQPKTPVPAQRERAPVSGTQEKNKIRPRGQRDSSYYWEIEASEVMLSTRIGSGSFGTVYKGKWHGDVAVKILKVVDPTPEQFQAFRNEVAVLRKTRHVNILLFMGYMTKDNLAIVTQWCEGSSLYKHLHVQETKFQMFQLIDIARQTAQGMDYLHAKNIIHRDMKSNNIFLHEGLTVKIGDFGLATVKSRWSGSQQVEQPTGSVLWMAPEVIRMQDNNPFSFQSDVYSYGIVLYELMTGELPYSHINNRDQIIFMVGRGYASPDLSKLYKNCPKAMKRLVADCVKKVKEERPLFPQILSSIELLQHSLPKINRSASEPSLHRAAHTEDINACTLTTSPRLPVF", "procedure,_shortened": "as §1"}, "SNRK": {"target": "T25, SNRK (Homo sapiens, UniProt Q9NRH2)", "T25 construct": "purchased Reaction Biology Corporation (Kinase HotSpot)", "procedure,_shortened": "as §1"}, "TAOK3/JIK": {"target": "T26, TAOK3/JIK (Homo sapiens, UniProt Q9H2K8)", "T26 construct": "purchased Reaction Biology Corporation (Kinase HotSpot)", "procedure,_shortened": "as §1"}, "TESK1": {"target": "T27, TESK1 (Homo sapiens, UniProt Q15569)", "T27 construct": "purchased Reaction Biology Corporation (Kinase HotSpot)", "T27 sequence (Q15569 whole entry)": "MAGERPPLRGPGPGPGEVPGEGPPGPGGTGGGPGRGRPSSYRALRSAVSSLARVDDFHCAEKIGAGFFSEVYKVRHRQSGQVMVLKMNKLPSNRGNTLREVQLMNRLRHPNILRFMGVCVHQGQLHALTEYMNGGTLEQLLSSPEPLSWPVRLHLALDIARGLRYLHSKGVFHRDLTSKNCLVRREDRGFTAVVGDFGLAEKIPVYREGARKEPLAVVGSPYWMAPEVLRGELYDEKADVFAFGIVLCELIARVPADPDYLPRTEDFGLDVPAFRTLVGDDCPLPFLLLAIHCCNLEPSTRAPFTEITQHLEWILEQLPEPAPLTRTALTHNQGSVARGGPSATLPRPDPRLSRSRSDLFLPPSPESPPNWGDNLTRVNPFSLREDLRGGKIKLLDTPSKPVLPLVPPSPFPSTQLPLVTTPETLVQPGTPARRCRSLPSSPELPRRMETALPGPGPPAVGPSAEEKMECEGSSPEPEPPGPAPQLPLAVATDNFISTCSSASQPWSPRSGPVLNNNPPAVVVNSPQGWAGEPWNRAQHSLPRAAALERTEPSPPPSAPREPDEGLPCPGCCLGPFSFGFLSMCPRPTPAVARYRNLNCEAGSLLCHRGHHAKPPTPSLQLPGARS", "procedure,_shortened": "as §1"}, "TSSK2": {"target": "T28, TSSK2 (Homo sapiens, UniProt Q96PF2)", "T28 construct": "purchased Reaction Biology Corporation (Kinase HotSpot)", "procedure,_shortened": "as §1"}, "WNK1": {"target": "T29, WNK1 (Homo sapiens, UniProt Q9H4A3)", "T29 construct": "purchased Reaction Biology Corporation (Kinase HotSpot)", "procedure,_shortened": "as §1"}, "ZAP70": {"target": "T30, ZAP70 (Homo sapiens, UniProt P43403)", "T30 construct": "purchased Reaction Biology Corporation (Kinase HotSpot)", "procedure,_shortened": "as §1"}}}
{"compound": "Cc1cnc(N[C@H]2CC[C@H](N)CC2)nc1-c1cnc2ccc(-c3ccccc3)cn12", "note": "[CDDD11-8]", "values": [{"measurement": "remaining activity at 1 µM", "setting": "ABL2/ARG", "value": 67.5, "unit": "%"}, {"measurement": "remaining activity at 1 µM", "setting": "CDK4/cyclin D3", "value": 79.7, "unit": "%"}, {"measurement": "remaining activity at 1 µM", "setting": "CDK5/p25", "value": 77.8, "unit": "%"}, {"measurement": "remaining activity at 1 µM", "setting": "CDK9/cyclin T1", "value": 18.5, "unit": "%"}, {"measurement": "remaining activity at 1 µM", "setting": "CK1g3", "value": 63.2, "unit": "%"}, {"measurement": "remaining activity at 1 µM", "setting": "CLK1", "value": 28.9, "unit": "%"}, {"measurement": "remaining activity at 1 µM", "setting": "COT1/MAP3K8", "value": 101, "unit": "%"}, {"measurement": "remaining activity at 1 µM", "setting": "DMPK2", "value": 26.3, "unit": "%"}, {"measurement": "remaining activity at 1 µM", "setting": "ERK2/MAPK1", "value": 109, "unit": "%"}, {"measurement": "remaining activity at 1 µM", "setting": "FYN", "value": 63.2, "unit": "%"}, {"measurement": "remaining activity at 1 µM", "setting": "GSK3b", "value": 94.5, "unit": "%"}, {"measurement": "remaining activity at 1 µM", "setting": "HCK", "value": 62.7, "unit": "%"}, {"measurement": "remaining activity at 1 µM", "setting": "IRAK1", "value": 91.9, "unit": "%"}, {"measurement": "remaining activity at 1 µM", "setting": "LYN B", "value": 88.5, "unit": "%"}, {"measurement": "remaining activity at 1 µM", "setting": "MAPKAPK5/PRAK", "value": 99.4, "unit": "%"}, {"measurement": "remaining activity at 1 µM", "setting": "MARK2/PAR-1Ba", "value": 23.1, "unit": "%"}, {"measurement": "remaining activity at 1 µM", "setting": "MKK7", "value": 95.4, "unit": "%"}, {"measurement": "remaining activity at 1 µM", "setting": "MLK2/MAP3K10", "value": 76.5, "unit": "%"}, {"measurement": "remaining activity at 1 µM", "setting": "MST2/STK3", "value": 15, "unit": "%"}, {"measurement": "remaining activity at 1 µM", "setting": "MYO3A", "value": 87.3, "unit": "%"}, {"measurement": "remaining activity at 1 µM", "setting": "NEK5", "value": 28.7, "unit": "%"}, {"measurement": "remaining activity at 1 µM", "setting": "PAK6", "value": 96.6, "unit": "%"}, {"measurement": "remaining activity at 1 µM", "setting": "PKN1/PRK1", "value": 63.8, "unit": "%"}, {"measurement": "remaining activity at 1 µM", "setting": "RAF1", "value": 98.1, "unit": "%"}, {"measurement": "remaining activity at 1 µM", "setting": "SNRK", "value": 100, "unit": "%"}, {"measurement": "remaining activity at 1 µM", "setting": "TAOK3/JIK", "value": 48.6, "unit": "%"}, {"measurement": "remaining activity at 1 µM", "setting": "TESK1", "value": 113, "unit": "%"}, {"measurement": "remaining activity at 1 µM", "setting": "TSSK2", "value": 93.8, "unit": "%"}, {"measurement": "remaining activity at 1 µM", "setting": "WNK1", "value": 90, "unit": "%"}, {"measurement": "remaining activity at 1 µM", "setting": "ZAP70", "value": 101, "unit": "%"}]}
